Source: the supplement of paper PMC6045584
± gives the standard deviation of the averaged measurements.

What was measured:
[1] = compound: CO[C@H]1C[C@@H]2CC[C@@H](C)[C@@](O)(O2)C(=O)C(=O)N2CCCC[C@H]2C(=O)O[C@H]([C@H](C)C[C@@H]2CC[C@@H](OCCO)[C@H](OC)C2)CC(=O)[C@H](C)/C=C(\C)[C@@H](O)[C@@H](OC)C(=O)[C@H](C)C[C@H](C)/C=C/C=C/C=C/1C [EVEROLIMUS]; assay: surviving fraction relative to DMSO-only wells; higher = less growth inhibition; details: exposure time: 5 days
Procedure, shortened: (§1)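 Surviving fraction was calculated by normalising CellTiter-Glo luminescence to the median of DMSO-only wells. Tumour cell lines in log phase were seeded in 384-well plates at 250–500 cells per well, and 24 hours later were exposed continuously for five days to inhibitors at 0.5, 1, 5, 10, 50, 100, 500 and 1000 nM.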

[2] = compound: COc1cc([C@@H]2c3cc4c(cc3[C@@H](O[C@@H]3O[C@@H]5CO[C@@H](C)O[C@H]5[C@H](O)[C@H]3O)[C@H]3COC(=O)[C@H]23)OCO4)cc(OC)c1O [ETOPOSIDE]; assay: as above; details: exposure time: 5 days
Procedure, shortened: as §1

Row | Test System | surviving fraction ([1]; 0.5 nM) | surviving fraction ([1]; 1 nM) | surviving fraction ([1]; 5 nM) | surviving fraction ([1]; 10 nM) | surviving fraction ([1]; 50 nM) | surviving fraction ([1]; 100 nM) | surviving fraction ([1]; 500 nM) | surviving fraction ([1]; 1000 nM) | surviving fraction ([2]; 0.5 nM) | surviving fraction ([2]; 1 nM) | surviving fraction ([2]; 5 nM) | surviving fraction ([2]; 10 nM) | surviving fraction ([2]; 50 nM) | surviving fraction ([2]; 100 nM) | surviving fraction ([2]; 500 nM) | surviving fraction ([2]; 1000 nM)
1 | HCC70 BREAST | 0.866 ± 0.073 | 0.749 ± 0.059 | 0.606 ± 0.017 | 0.536 ± 0.024 | 0.536 ± 0.052 | 0.543 ± 0.019 | 0.44 ± 0.054 | 0.429 ± 0.01 | 1.05 ± 0.078 | 0.995 ± 0.053 | 1.08 ± 0.044 | 1.09 ± 0.1 | 0.991 ± 0.13 | 1.09 ± 0.09 | 0.785 ± 0.077 | 0.578 ± 0.016
2 | HCC78 LUNG | 0.516 ± 0.13 | 0.674 ± 0.26 | 0.528 ± 0.11 | 0.627 ± 0.11 | 0.621 ± 0.1 | 0.599 ± 0.18 | 0.358 ± 0.052 | 0.327 ± 0.055 | 0.952 ± 0.064 | 0.863 ± 0.27 | 1 ± 0.082 | 0.925 ± 0.16 | 0.841 ± 0.11 | 0.649 ± 0.099 | 0.0883 ± 0.027 | 0.089 ± 0.024
3 | HCC202 BREAST | 1 ± 0.083 | 0.79 ± 0.055 | 0.548 ± 0.15 | 0.578 ± 0.13 | 0.383 ± 0.093 | 0.471 ± 0.1 | 0.44 ± 0.054 | 0.385 ± 0.14 | 1.08 ± 0.35 | 1.11 ± 0.12 | 1.17 ± 0.066 | 0.994 ± 0.18 | 1.14 ± 0.18 | 1.14 ± 0.22 | 0.84 ± 0.31 | 0.724 ± 0.13
4 | HCC1806 BREAST | 0.918 ± 0.13 | 0.911 ± 0.043 | 0.888 ± 0.085 | 0.851 ± 0.051 | 0.784 ± 0.095 | 0.859 ± 0.083 | 0.669 ± 0.11 | 0.74 ± 0.12 | 0.883 ± 0.089 | 1.04 ± 0.14 | 1.05 ± 0.082 | 1.03 ± 0.075 | 1.14 ± 0.029 | 0.807 ± 0.067 | 0.182 ± 0.021 | 0.141 ± 0.0035
5 | HCC1954 BREAST | 0.4 ± 0.05 | 0.376 ± 0.082 | 0.399 ± 0.074 | 0.428 ± 0.08 | 0.321 ± 0.014 | 0.308 ± 0.016 | 0.249 ± 0.039 | 0.275 ± 0.037 | 0.889 ± 0.22 | 0.872 ± 0.095 | 1.1 ± 0.064 | 1.05 ± 0.074 | 0.953 ± 0.054 | 0.654 ± 0.014 | 0.512 ± 0.13 | 0.34 ± 0.0014
6 | HCT15 LARGE INTESTINE | 0.803 ± 0.066 | 0.702 ± 0.066 | 0.599 ± 0.07 | 0.511 ± 0.013 | 0.512 ± 0.055 | 0.511 ± 0.059 | 0.476 ± 0.046 | 0.542 ± 0.037 | 1.01 ± 0.037 | 0.981 ± 0.03 | 1.01 ± 0.041 | 1.04 ± 0.046 | 1.007 ± 0.0047 | 1.05 ± 0.033 | 0.704 ± 0.095 | 0.328 ± 0.037
7 | HELA CERVIX | 1.04 ± 0.027 | 1.04 ± 0.014 | 1.04 ± 0.029 | 1.036 ± 0.0052 | 1.15 ± 0.023 | 1.14 ± 0.058 | 1.09 ± 0.036 | 1.16 ± 0.055 | 1.1 ± 0.033 | 1.1 ± 0.023 | 1.04 ± 0.031 | 1.04 ± 0.015 | 1.14 ± 0.063 | 1.18 ± 0.059 | 0.301 ± 0.044 | 0.182 ± 0.0037
8 | HMLE3 BREAST | 1.02 ± 0.065 | 0.956 ± 0.02 | 0.813 ± 0.036 | 0.682 ± 0.016 | 0.455 ± 0.063 | 0.402 ± 0.036 | 0.322 ± 0.044 | 0.306 ± 0.019 | 1.02 ± 0.052 | 0.974 ± 0.06 | 1.01 ± 0.027 | 0.9737 ± 0.0075 | 0.826 ± 0.018 | 0.589 ± 0.06 | 0.279 ± 0.045 | 0.27 ± 0.017
9 | HMT3552 BREAST | 0.742 ± 0.097 | 0.6117 ± 0.0057 | 0.591 ± 0.021 | 0.598 ± 0.032 | 0.649 ± 0.016 | 0.616 ± 0.049 | 0.545 ± 0.05 | 0.549 ± 0.067 | 1.05 | 1.05 | 1.04 | 0.998 | 1.14 | 1.03 | 0.347 | 0.22
10 | HOS BONE | 0.885 ± 0.015 | 0.861 ± 0.0096 | 0.804 ± 0.018 | 0.742 ± 0.021 | 0.763 ± 0.011 | 0.766 ± 0.012 | 0.711 ± 0.033 | 0.721 ± 0.0092 | 1.01 ± 0.011 | 1.02 ± 0.033 | 1.02 ± 0.018 | 1.019 ± 0.0095 | 0.978 ± 0.01 | 0.707 ± 0.033 | 0.0687 ± 0.0011 | 0.067 ± 0.0056
11 | HOSMNG BONE | 1.03 ± 0.013 | 0.95 ± 0.051 | 0.951 ± 0.11 | 0.979 ± 0.07 | 1 ± 0.07 | 1.05 ± 0.1 | 0.999 ± 0.085 | 1.03 ± 0.027 | 0.958 ± 0.1 | 0.984 ± 0.056 | 0.976 ± 0.024 | 1.01 ± 0.023 | 1.02 ± 0.021 | 1.04 ± 0.018 | 0.956 ± 0.079 | 0.78 ± 0.021
12 | HS57T BREAST | 0.614 ± 0.029 | 0.535 ± 0.0078 | 0.497 ± 0.031 | 0.445 ± 0.016 | 0.447 ± 0.024 | 0.44 ± 0.042 | 0.373 ± 0.024 | 0.387 ± 0.045 | 1.02 ± 0.016 | 0.967 ± 0.049 | 1.01 ± 0.02 | 1.06 ± 0.069 | 1.09 ± 0.055 | 0.909 ± 0.06 | 0.409 ± 0.048 | 0.288 ± 0.017
13 | HS578T BREAST | 0.6 ± 0.095 | 0.598 ± 0.019 | 0.527 ± 0.047 | 0.524 ± 0.042 | 0.563 ± 0.08 | 0.545 ± 0.048 | 0.471 ± 0.044 | 0.468 ± 0.017 | 0.878 ± 0.18 | 0.849 ± 0.12 | 0.831 ± 0.2 | 0.789 ± 0.079 | 0.95 ± 0.11 | 0.751 ± 0.064 | 0.59 ± 0.064 | 0.372 ± 0.029
14 | HSSYII SYNOVIAL | 0.781 ± 0.043 | 0.711 ± 0.066 | 0.616 ± 0.018 | 0.566 ± 0.025 | 0.476 ± 0.011 | 0.462 ± 0.025 | 0.416 ± 0.051 | 0.3632 ± 0.0025 | 0.995 ± 0.045 | 0.972 ± 0.068 | 0.968 ± 0.049 | 0.971 ± 0.018 | 0.7943 ± 0.0045 | 0.59 ± 0.026 | 0.116 ± 0.0062 | 0.0892 ± 0.0041
15 | HT1080 SOFT TISSUE | 1.04 ± 0.029 | 0.991 ± 0.013 | 0.733 ± 0.039 | 0.577 ± 0.045 | 0.496 ± 0.019 | 0.48 ± 0.029 | 0.477 ± 0.036 | 0.477 ± 0.036 | 1.02 ± 0.028 | 0.995 ± 0.026 | 0.951 ± 0.02 | 0.94 ± 0.015 | 0.616 ± 0.046 | 0.467 ± 0.0051 | 0.217 ± 0.021 | 0.222 ± 0.0056
16 | HU09 BONE | 0.669 ± 0.016 | 0.602 ± 0.037 | 0.513 ± 0.0057 | 0.512 ± 0.048 | 0.49 ± 0.011 | 0.42 ± 0.011 | 0.382 ± 0.016 | 0.39 ± 0.023 | 0.957 ± 0.075 | 0.977 ± 0.09 | 1.12 ± 0.099 | 1 ± 0.023 | 0.972 ± 0.12 | 0.803 ± 0.087 | 0.146 ± 0.0087 | 0.0523 ± 0.0064
